From PubChem BioAssay (NCI)
Several values for one entry are separate records, joined by “and”; a condition that tells them apart may be missing. Equal entries are not always repeated.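 Tested at 5 concentrations; 48 h exposure; 96-well plates; endpoints linearly interpolated, else capped at highest concentration. Abbreviation: GI50, concentration required for 50% inhibition of growth. TGI marks complete inhibition of growth.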

Test system: MDA-MB-468 breast
Experiment: growth of human tumour cells (NCI), 48 h

In the case of `COc1ccc(C(=O)Nc2ncc(Cc3ccc(Cl)cc3)s2)cc1`, the GI50 is reported as 0.0378 µM and the TGI is reported as 17.5 µM.
With `COC1(C(=O)N2Cc3nc(Cl)nc(N[C@H](C)c4cc(N)cc(C(F)(F)F)c4)c3C2)CCOCC1` the GI50 was 4.44 µM and the TGI was 40.1 µM.
With `COc1ccc(C(=S)N2CCN(c3cccc(Cl)c3)CC2)cc1` the GI50 was 32.3 µM and the TGI was > 100 µM.
Molecule `O=C(NNc1nc2c(F)cccc2n2cccc12)c1cnccn1` has a GI50 of 0.535 µM and a TGI of 2.17 µM.
Molecule `Clc1ccccc1C(c1ccccc1)(c1ccccc1)n1ccnc1` has a GI50 of 1.77 µM and a TGI of 6.21 µM.
`Oc1ccccc1/C=N/Nc1ccc2ccccc2n1` showed a GI50 of 2.6 µM and a TGI of 14.8 µM.
For `C=C1C(=O)O[C@H]2[C@H]1CC/C(CNC(=O)c1c[nH]c3ccc(F)cc13)=C\CC[C@@]1(C)O[C@@H]21`, the GI50 was 0.658 µM and the TGI was 2.06 µM.
`COC(=O)C(=O)CC(=O)CCn1ncc(Cl)c(Cl)c1=O` showed a GI50 of 7.01 µM and a TGI of 22.5 µM.
Molecule `COc1cc2c3c(cccc3c1)C(=O)N(CCN1CCCC1)C2=O` has a GI50 of 1.32 µM and a TGI of 3.7 µM.
For `Cc1ccn2c3c(c(C(=O)O)c2c1)C(=O)c1ccccc1C3=O`, the GI50 was 17.3 µM and the TGI was > 100 µM.
Work on `Cc1nn(-c2ccc(F)cc2)c2ncnc(Nc3ccc(NC(=O)Nc4ccc(Cl)c(C(F)(F)F)c4)cc3)c12` yielded a GI50 of 1.8 µM and a TGI of 4.54 µM.
With `CNC(=O)c1ccccc1CC1(O)c2ccccc2Oc2ccccc21` the GI50 was 3.55 µM and the TGI was 20.5 µM.
In the case of `O=C(Nc1cccc(-n2ccc3c(NC(=O)c4ccccc4)nccc32)c1)c1cccc(C(F)(F)F)c1`, the GI50 is reported as 0.0295 µM and the TGI is reported as 1.54 µM.
For `O=C(Nc1nc2ccccc2s1)OCC(F)(F)F`, the GI50 was > 100 µM and the TGI was > 100 µM.
`Nc1n[nH]c2ccc([C@@H]3Nc4ccc5[nH]ncc5c4[C@H]4[C@H]5CCC(C5)[C@H]43)cc12` showed a GI50 of 0.249 µM and a TGI of 1.42 µM.
`COc1cc2ncn(-c3cc(OCc4ccccc4Cl)c(C(N)=O)s3)c2cc1OC` was tested, and the GI50 was 0.0499 µM and the TGI was 0.429 µM.
With `O=c1cc(-c2cccc(F)c2)[nH]c2cc3c(cc12)OCO3` the GI50 was 10.8 µM and the TGI was 45.2 µM.
For `COc1ccc(-c2nn(-c3cccc(Cl)c3)cc2C2CC(c3ccccc3)=NN2C(C)=O)cc1` (configuration not stated), the GI50 was 16.3 µM and the TGI was > 100 µM.
`Cc1[nH]c(/C=C2\C(=O)Nc3ccc(S(=O)(=O)Cc4c(Cl)cccc4Cl)cc32)c(C)c1C(=O)N1CCC[C@@H]1CN1CCCC1` showed a GI50 of 1.52 µM and a TGI of 2.94 µM.
`CCC(C)C1NC(=O)c2nc(oc2-c2ccccc2)-c2csc(n2)-c2csc(n2)-c2nc(oc2C)-c2coc(n2)CNC(=O)C(C(C)CC)NC1=O` (configuration not stated) was tested, and the GI50 was 0.03 µM and the TGI was 0.101 µM.
For `CCN1CCN(c2nc(NCCCNc3ccnc4cc(Cl)ccc34)c3ccccc3n2)CC1`, the GI50 was 1.62 µM and the TGI was 3.61 µM.
With `C#Cc1nc(C(=O)NCCC(=O)Nc2ccc(NC(=O)c3ccc(/C=C/C(=O)c4nccn4C)cc3)cc2)cs1` the GI50 was 0.891 µM and the TGI was 2.17 µM.
For `Cc1ccc2c(C(C[N+](=O)[O-])c3cccs3)c(-c3ccccc3)[nH]c2c1` (configuration not stated), the GI50 was 0.82 µM and the TGI was 3.02 µM.
`COc1ccccc1NC1=C(Cl)C(=O)c2nc(C)ccc2C1=O` gave a GI50 of 1.52 µM and a TGI of 3.06 µM.
`CCn1c(SCC(=O)Nc2cccc(C(=O)/C=C/c3cc(OC)c(OC)c(OC)c3)c2)nc2ccccc2c1=O` gave a GI50 of 4.22 µM and a TGI of 40.2 µM.
Molecule `N#CC(=C1SCS1)[N+](=O)[O-]` has a GI50 of 0.249 µM and a TGI of 0.846 µM.
With `Brc1cccc(-c2cc(-c3ccc4c(c3)OCCO4)[nH]n2)c1` the GI50 was 5.6 µM and the TGI was 33.5 µM.
With `Fc1cccc(COc2ccc(Nc3ncncc3C#Cc3ccccc3)cc2Cl)c1` the GI50 was 8.77 µM and the TGI was > 25 µM.
`CCCCCCCCCCCCCC(=S)NCCCC[C@H](NC(=O)OCc1ccccc1)C(=O)Nc1ccccc1` was tested, and the GI50 was 2.69 µM and the TGI was > 100 µM.
With `CN(C)CC(=O)N1CCC(c2ccc(NC(=O)c3ncc(C#N)[nH]3)c(C3=CCCCC3)c2)CC1` the GI50 was 4.86 µM and the TGI was 18.5 µM.
In the case of `CN=C(N)N/N=C(\c1ccccc1)c1ccc(Br)cc1`, the GI50 is reported as 0.275 µM and the TGI is reported as 1.08 µM.
With `Cc1cc([C@@H](C)Nc2ccccc2C(=O)O)c2nc(N3CCOCC3)cc(=O)n2c1` the GI50 was 2.21 µM and the TGI was > 10 µM.
With `COc1cccc(/C=C/C(=O)c2cc3c(N)c(C(=O)Nc4ccccc4C)sc3nc2C)c1` the GI50 was 0.887 µM and the TGI was 2.04 µM.
`COc1cc(/C=C\[N+](=O)[O-])ccc1O` was tested, and the GI50 was 1.69 µM and the TGI was 3.5 µM.
`O=C(CSc1nc2ccc([N+](=O)[O-])cc2[nH]1)Nc1ccc(F)c(Cl)c1` gave a GI50 of 1.17 µM and a TGI of 5.07 µM.
With `CC1(C)N=C(N)N=C(N)N1c1ccc(CCCCc2ccc(S(=O)(=O)F)cc2)cc1` the GI50 was 0.539 µM and the TGI was 9.33 µM.
Work on `CC(C)(C)c1cc(O)c(O)c(C(C)(C)C)c1` yielded a GI50 of 2.14 µM and a TGI of 4.77 µM.
For `COc1c(C2CC(=O)Nc3c2cnn3Cc2ccco2)cc2c(c1OC)OCO2` (configuration not stated), the GI50 was 0.318 µM and the TGI was > 100 µM.
In the case of `Cc1cc2nc3c4cc(Cl)ccc4n(CCN(C)C)c3nc2cc1C`, the GI50 is reported as 1.41 µM and the TGI is reported as 3.58 µM.
With `CC(=O)Nc1cccc(-n2c(=O)n(C3CC3)c(=O)c3c(Nc4ccc(I)cc4F)n(C)c(=O)c(C)c32)c1` the GI50 was 2.82 µM and > 10 µM and the TGI was 23.6 µM and > 10 µM.
Molecule `CN1CCN(Cc2ccc(C(=O)Nc3cncc(C#Cc4cnc(N)c5ccccc45)c3)cc2C(F)(F)F)CC1` has a GI50 of 1.77 µM and a TGI of 3.65 µM.
Molecule `NC(N)=N/N=C(/c1ccccc1)c1ccc(F)cc1` has a GI50 of 0.22 µM and a TGI of 2.46 µM.
For `CN1CCN(CC#Cc2cccc(C(=O)c3cnn(-c4ccc(F)cc4)c3N)c2)CC1`, the GI50 was > 25 µM and the TGI was > 25 µM.
`CCn1c(-c2nonc2N)nc2c(C#CCN)ncc(OCCCN)c21` was tested, and the GI50 was > 25 µM and the TGI was > 25 µM.
Work on `C[C@@H]1CC[C@@H]2[C@@H]1[C@H](OC(=O)/C=C/c1ccccc1)[C@]1(c3ccccc3)C[C@@H](OC(=O)CO)[C@@]2(C)O1` yielded a GI50 of 13.6 µM and a TGI of 29 µM.
Work on `C=CC(=O)N[C@H]1C=C(C)c2c(-c3cnc4ccccc4c3)c3c(N)ncnc3n2C1` yielded a GI50 of 0.0265 µM and a TGI of 0.485 µM.
